The values that follow come from patent US4946841A, “Pyridazine 3,5-dihydroxy carboxylic acids and derivatives thereof, the use thereof for hypercholesterolemia” (Hoechst Aktiengesellachaft, priority 1988, dated 1990).

Like-named read-outs stand apart in the source and are kept apart here.

Experiment [1] concerns the target T1, HMG-CoA reductase (Rattus norvegicus, UniProt P51639).
T1 construct: solubilized enzyme preparations from liver microsomes of rats; from tissue; host or cells: rat liver microsomes, solubilized; rats induced with cholestyramine (Cuemid)
T1 sequence (P51639 1-887): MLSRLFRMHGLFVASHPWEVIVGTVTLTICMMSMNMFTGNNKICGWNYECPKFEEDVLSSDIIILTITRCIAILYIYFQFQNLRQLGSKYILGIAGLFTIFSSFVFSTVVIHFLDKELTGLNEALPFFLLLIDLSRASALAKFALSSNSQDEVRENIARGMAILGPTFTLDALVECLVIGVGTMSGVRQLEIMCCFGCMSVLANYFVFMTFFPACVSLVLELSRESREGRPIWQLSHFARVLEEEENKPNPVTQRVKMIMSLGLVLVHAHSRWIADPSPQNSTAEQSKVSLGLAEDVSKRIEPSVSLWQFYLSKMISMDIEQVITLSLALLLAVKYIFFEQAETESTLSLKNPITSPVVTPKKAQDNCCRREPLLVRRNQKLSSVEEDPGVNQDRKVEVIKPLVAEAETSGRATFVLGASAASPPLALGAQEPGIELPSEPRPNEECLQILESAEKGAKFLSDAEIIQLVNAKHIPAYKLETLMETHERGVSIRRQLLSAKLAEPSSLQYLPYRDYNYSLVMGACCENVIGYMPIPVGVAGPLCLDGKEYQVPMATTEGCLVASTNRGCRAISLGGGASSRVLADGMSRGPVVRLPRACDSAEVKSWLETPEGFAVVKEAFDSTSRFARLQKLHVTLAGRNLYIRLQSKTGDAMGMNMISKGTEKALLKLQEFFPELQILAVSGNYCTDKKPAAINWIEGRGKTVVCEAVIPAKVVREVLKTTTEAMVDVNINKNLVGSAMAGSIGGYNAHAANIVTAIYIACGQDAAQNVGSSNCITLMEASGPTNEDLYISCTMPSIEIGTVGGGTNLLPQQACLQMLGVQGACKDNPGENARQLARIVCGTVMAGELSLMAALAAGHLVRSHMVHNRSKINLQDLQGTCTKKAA
Briefly: HMG-CoA reductase activity in enzyme preparations. Type of experiment: biochemical, rats. Particulars: solubilized enzyme from rat liver microsomes, 14C-HMG-CoA substrate; read-out: IC50, molar concentration of the compound required for 50% inhibition of HMG-CoA reductase. As to the method: The HMG-CoA reductase activity was measured on solubilized enzyme preparations from liver microsomes of rats which, after changing over the day/night rhythm, were induced with cholestyramine (®Cuemid).
The substrate used was (S,R)^14 C-HMG-CoA, and the concentration of NADPH was maintained during the incubation by a regenerating system. ^14 C-mevalonate was removed from the substrate and other products (for example ^14 C-HMG) by column elution, with the elution profile of each individual sample being determined. ^3 H-mevalonate was not included in every test because the determination was of the relative inhibitory effect. In each series of tests, the enzyme-free control, the enzyme-containing normal mixture (=100%) and one with added product, final concentration 10^-5 to 10^-9 M, were treated together. Each individual value was formed as the mean of 3 parallel samples. The significance of the differences between the means for product-free and product-containing samples was assessed by the t test.
The method described above was used to determine the figures for the inhibition of HMG-CoA reductase by the compounds according to the invention (IC50 /mol/liter signifies the molar concentration of the compound required for 50% inhibition): […]

Experiment [2] deals with cholesterol biosynthesis in HEP-G2 cells. Briefly: Inhibition of cholesterol biosynthesis in cell cultures of HEP-G2 cells. The note with it: Homo sapiens, HepG2, 14C-acetate precursor, read-out: IC50, concentration which brings about 50% inhibition of cholesterol biosynthesis. The class given is cell-based. How it is done: Monolayers of HEP-G2 cells in lipoprotein-free nutrient medium were pre-incubated with appropriate concentrations of the test substances for a defined time (for example 1 hour) and, after addition of the labeled precursor, for example sodium ^14 C-acetate, incubation was continued (for example for 3 hours). After addition of an internal standard (^3 H-cholesterol) a portion of the cells was hydrolyzed with alkali. The lipids from the hydrolyzed cells were extracted with chloroform/methanol.
This Lipid mixture was, after addition of carrier cholesterol, subjected to preparative thin-layer chromatography, the cholesterol band was visualized with iodine vapor and then isolated, and the amount of ^14 C-cholesterol formed from the ^14 C-precursor was determined by scintigraphy. Cellular protein was determined in an aliquot of the cells, so that it is possible to calculate the amount of ^14 C-cholesterol formed per unit time per mg of cellular protein. Comparison of this figure with the amount of ^14 C-cholesterol formed per mg of cellular protein and unit time in a culture treated in the same way but free of test substance yielded the inhibitory effect of the particular test product on cholesterol biosynthesis of HEP-G2 cell cultures. […]

For experiment [3] the following is noted: rat; cited from earlier work.
The conditions of experiment [4]: tests on humans; cited from earlier work.

As to `CC(C)c1nnc(-c2ccc(F)cc2)c(-c2ccc(F)cc2)c1/C=C/[C@@H](O)C[C@@H](O)CC(=O)O` (relative stereo) [Example 13a, Sodium 7-[3,4-di(4-fluorophenyl)-6-isopropylpyridazin-5-yl]-3,5-dihydroxy-6-heptenoate], the IC50 in experiment [1] is 1.7 nM; in experiment [2], 50 nM.

Take `CC(O)(CC(=O)O)CC(=O)O` [3-Hydroxy-3-methylglutaric acid]: the cholesterol-lowering action entry in experiment [3] and in experiment [4] was “significant cholesterol-lowering action” throughout.

`CC(C)c1nnc(-c2ccc(F)cc2)c(-c2ccc(F)cc2)c1/C=C/[C@@H](O)C[C@@H](O)CC(=O)O` [Example 19a, Sodium 7-[3,4-di(4-fluorophenyl)-6-isopropylpyridazin-5-yl]-3(R),5(S)-dihydroxy-6(E)-heptenoate]: the IC50 in experiment [1] worked out at 1.3 nM; in experiment [2] it was 25 nM.
